Source: Sander's compilation of Henry's law constants (doi:10.1016/0045-6535(85)90029-3)

test: Henry solubility constant Hcp at 298.15 K (mol/(m3 Pa)); conditions: reference: Oliver (1985)

SMILES | Henry solubility constant Hcp
Clc1cccc(-c2cccc(Cl)c2Cl)c1Cl [2,2',3,3'-tetrachlorobiphenyl] | 0.082
Clc1ccc(Cl)c(-c2cc(Cl)ccc2Cl)c1 [2,2',5,5'-tetrachlorobiphenyl] | 0.082
ClC(Cl)=C(Cl)c1c(Cl)c(Cl)c(Cl)c(Cl)c1Cl [octachlorostyrene] | 0.076
Clc1cc(Cl)cc(Cl)c1 [1,3,5-trichlorobenzene] | 0.0052
Clc1ccc(Cl)cc1 [1,4-dichlorobenzene] | 0.0066
ClC(Cl)=C(Cl)C(Cl)=C(Cl)Cl [hexachlorobutadiene] | 0.0023
Clc1cc(Cl)c(-c2cc(Cl)c(Cl)cc2Cl)cc1Cl [2,2',4,4',5,5'-hexachlorobiphenyl] | 0.16
Cc1c(Cl)ccc(Cl)c1Cl [2,3,6-trichloromethylbenzene] | 0.0066
Cc1c(Cl)c(Cl)c(Cl)c(Cl)c1Cl [pentachloromethylbenzene] | 0.013
Clc1cccc(Cl)c1Cl [1,2,3-trichlorobenzene] | 0.011
Cc1cc(Cl)c(Cl)cc1Cl [2,4,5-trichloromethylbenzene] | 0.0066
Clc1cccc(Cl)c1 [1,3-dichlorobenzene] | 0.0055
Clc1ccc(Cl)c(-c2cc(Cl)c(Cl)cc2Cl)c1 [2,2',4,5,5'-pentachlorobiphenyl] | 0.14
Clc1ccc(Cl)c(-c2ccccc2Cl)c1 [2,2',5-trichlorobiphenyl] | 0.049
Clc1cc(Cl)c(Cl)cc1Cl [1,2,4,5-tetrachlorobenzene] | 0.0099
